In ChEMBL document CHEMBL5370522, “Anti-inflammatory efficacy and relevant SAR investigations of novel chiral pyrazolo isoquinoline derivatives: Design, synthesis, in-vitro, in-vivo, and computational studies targeting iNOS” (Eur J Med Chem, 2023):
Calls of active or inactive are those of the source. No cut-off for these calls is given here.

Columns and labels:
[1] = system: Mus musculus; assay: Antiinflammatory activity against xylene-induced ear edema mouse model assessed as swelling rate at 10 mg/kg, iv measured after 30 mins; assay type: functional; settings: 0.5 h
[2] = Cytotoxicity against mouse RAW264.7 cells assessed as cell survival rate at 100 uM incubated for 24 hrs by MTT assay; assay type: toxicity, cell-based; settings: read-out: Activity
[3] = system: RAW264.7; assay: Anti inflammatory activity in LPS-induced mouse RAW264.7 cells assessed as inhibition of NO production preincubated with LPS for 4 hrs followed by compound addition and measured after 18 hrs by griess reagent based assay; assay type: functional, cell-based; settings: for Activity: dose 5-80 µM
[4] = system: RAW264.7; assay: Anti inflammatory activity in LPS-induced mouse RAW264.7 cells assessed as inhibition of NO production at 80 uM preincubated with LPS for 4 hrs followed by compound addition and measured after 18 hrs by griess reagent based assay; assay type: functional; design: scale not given: the % may be the effect or the level left
[5] = system: RAW264.7; assay: Cytotoxicity against mouse RAW264.7 cells assessed as reduction in cell viability at 1 to 40 uM incubated for 24 hrs by MTT assay; assay type: toxicity, cell-based; settings: raw264.7, 24 h, dose 1-40 µM
[6] = system: RAW264.7; assay: Anti inflammatory activity in LPS-induced mouse RAW264.7 cells assessed as reduction in iNOS expression at 5 to 80 uM measured for 24 hrs by Western blot analysis; assay type: functional, cell-based; settings: dose 5-80 µM

Row | Structure (SMILES) | Activity [1] [%] | viability at 24 h, 100 µM [2] [%] | IC50 [3] [µM] | Activity [3] | Activity [4] [%] | Activity [5] [%] | Activity [6]
1 | Cc1ccc(-c2cc(C(F)(F)F)nn2-c2ccc(S(N)(=O)=O)cc2)cc1 [CELECOXIB] | 70.05 |  |  |  |  |  | 
2 | COc1ccc([C@H]2C(=O)N(S(=O)(=O)c3ccc(C)cc3)N3C=Cc4ccccc4[C@H]23)cc1 |  | 87 | 47.8 | Dose-Dependent Effect | 77.09 |  | 
3 | COc1ccc([C@H]2C(=O)N(S(=O)(=O)c3ccc(C)cc3)N3C=Cc4c(Br)cccc4[C@H]23)cc1 |  | 91.7 | 26.7 | Dose-Dependent Effect | 84.9 |  | 
4 | Cc1ccc(S(=O)(=O)N2C(=O)[C@H](c3ccccc3F)[C@H]3c4cccc(Br)c4C=CN32)cc1 |  | 87.7 |  | Dose-Dependent Effect | 92.84 | 90 | 
5 | Cc1ccc(S(=O)(=O)N2C(=O)[C@H](c3ccc(F)cc3)[C@H]3c4ccccc4C=CN32)cc1 | 64.4 | 91.7 |  | Dose-Dependent Effect | 73.46 |  | 
6 | Cc1ccc(S(=O)(=O)N2C(=O)[C@H](c3ccc(Br)cc3)[C@H]3c4cccc(Br)c4C=CN32)cc1 |  | 92.9 | 20.8 | Dose-Dependent Effect | 91.61 | 90 | Active
7 | Cc1ccc(S(=O)(=O)N2C(=O)[C@H](c3cccc(F)c3)[C@H]3c4cccc(Br)c4C=CN32)cc1 |  |  | 33.8 | Dose-Dependent Effect |  |  | 
8 | Cc1ccc(S(=O)(=O)N2C(=O)[C@H](c3ccccc3)[C@H]3c4cccc(Br)c4C=CN32)cc1 |  | 92.3 | 47.8 | Dose-Dependent Effect | 90.52 | 90 | 
9 | Cc1ccc(S(=O)(=O)N2C(=O)[C@H](c3cccc(Br)c3)[C@H]3c4cccc(Br)c4C=CN32)cc1 |  | 81.7 |  | Dose-Dependent Effect | 72.86 |  | 
